Entries after “also recorded” stand apart in the source; their conditions may differ. Square brackets hold non-standard residues; d marks the D form. Peptide text beside a SMILES is read from it. d2Nal = N[C@H](Cc1ccc2ccccc2c1)C(=O)O
Assays:
[1] = tested on: rat model of acetic acid induced bladder irritation; assay: Rat model of acetic acid induced bladder irritation (Example 2); type: in vivo; details: for intercontraction interval (ICI): Example 2, FIG. 1, i.v. after acetic acid, Aspirin 10 mg/kg; for intercontraction interval (ICI) / bladder capacity: Icatibant 0.2, 1 and 5 mg/kg, Oxybutynin 1 mg/kg, R-715 1 mg/kg; for bladder capacity: Example 2, FIG. 2, i.v. after acetic acid, aspirin 10 mg/kg; for bladder capacity, pre-treatment: Example 2, pre-treatment prior to acetic acid application; for micturition pressure: Example 2, FIG. 3, after start of acetic acid infusion
Method: Groups of 5 female Wistar rats weighing 250 to 300 g anesthetized with urethane 1.2 g/kg i.p. in 5 ml/kg were used. A polyethylene catheter (PE50) was implanted into the bladder for saline or acetic acid infusion through a 3 way stopcock to which a pressure transducer is connected for measurements of bladder pressure (mm Hg). Saline at 37° C. was infused into the bladder at a constant rate until cystometrography stabilized in 60 minutes. Subsequently, 0.2% acetic acid was infused into the urinary bladder. […] The following parameters were measured continuously during baseline and for up to 1 hour post-dosing: bladder capacity (μl), intercontraction interval (ICI, in minutes, time between two voiding cycles), micturition pressure (mm Hg), micturition volume (ml, derived from the weight of excreted urine measured by a balance placed below the rat) and blood pressure (mm Hg). [table] Paired Student's test was applied for comparison between the time before (baseline) and after test substance or with vehicle treatment. To signify differences between test substance and vehicle control groups, Dunnett's test or unpair Student t test was used. Differences are considered significant at P<0.05 level.

[2] = tested on: rat model of acetic acid induced bladder irritation; assay: Rat model of acetic acid induced bladder irritation (Example 1); type: in vivo
Method: Groups of 5 female Wistar rats weighing 250 to 300 g anesthetized with urethane 1.2 g/kg i.p. in 5 ml/kg were used. A polyethylene catheter (PE50) was implanted into the bladder for saline or acetic acid infusion through a 3 way stopcock to which a pressure transducer is connected for measurements of bladder pressure (mm Hg). Saline at 37° C. was infused into the bladder at a constant rate until cystometrography becomes stable. Thereafter, instillation of 0.2% acetic acid into the urinary bladder was initiated. […] The following parameters were measured continuously for 1 hour after treatment was started: intercontraction interval (ICI, minutes, defined as the time between two voiding cycles), threshold pressure (mmHg), bladder capacity (ml), micturition volume (ml), and micturition pressure (mmHg). Micturition volume is derived from the weight of excreted urine measured by a balance placed below the rat.
Paired Student's test was applied for comparison between the time before and after test substance or with vehicle treatment. To signify differences between test substance and vehicle control group, Dunnett's test was used. Differences are considered significant at P<0.05.

guinea pig B2 receptors = target: T1, guinea pig B2 receptors (Cavia porcellus, UniProt O70526); details: human INT407 cells; cited from earlier work
T1 construct: host or cells: human INT407 cells
T1 sequence (O70526 1-372): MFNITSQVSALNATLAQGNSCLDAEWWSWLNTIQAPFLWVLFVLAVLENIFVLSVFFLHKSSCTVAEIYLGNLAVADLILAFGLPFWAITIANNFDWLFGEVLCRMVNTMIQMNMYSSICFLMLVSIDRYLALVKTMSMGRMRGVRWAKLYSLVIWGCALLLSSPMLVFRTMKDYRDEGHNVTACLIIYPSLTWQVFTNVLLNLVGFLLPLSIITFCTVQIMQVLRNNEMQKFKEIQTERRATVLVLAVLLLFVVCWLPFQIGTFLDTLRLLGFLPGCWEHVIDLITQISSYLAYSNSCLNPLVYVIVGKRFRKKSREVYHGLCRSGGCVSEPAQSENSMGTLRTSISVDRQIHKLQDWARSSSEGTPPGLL

| Compound | intercontraction interval (ICI) [1] | bladder capacity [1] | bladder capacity, pre-treatment [1] | micturition pressure [1] | also measured |
| --- | --- | --- | --- | --- | --- |
| CC(=O)Oc1ccccc1C(=O)O [Aspirin] | increases | increases the bladder capacity until reaching the baseline levels |  |  |  |
| COc1cc(CNC(=O)CCCC/C=C/C(C)C)ccc1O [Capsaicin] |  |  | completely blocks the acetic acid induced decrease of bladder capacity |  | intercontraction interval (ICI), Capsaicin pre-treatment ([1]; Example 2, 25 mg/kg and 50 mg/kg s.c., 4 days prior to experiment): inhibition of the acetic acid—triggered ICI—decrease |
| NC(N)=NCCC[C@@H](N)C(=O)N[C@@H](CCCN=C(N)N)C(=O)N1CCC[C@H]1C(=O)N1C[C@H](O)C[C@H]1C(=O)NCC(=O)N[C@@H](Cc1cccs1)C(=O)N[C@@H](CO)C(=O)N1Cc2ccccc2C[C@@H]1C(=O)N1[C@H](C(=O)N[C@@H](CCCN=C(N)N)C(=O)O)C[C@@H]2CCCC[C@@H]21 [Icatibant, H-D-Arg-Arg-Pro-Hyp-Gly-Thi-Ser-D-Tic-Oic-Arg-OH] | increases; also recorded: doubling | increases the bladder capacity until reaching the baseline levels; also recorded: tripling | completely blocks the acetic acid induced decrease of bladder capacity | without any change | intercontraction interval (ICI) ([2]; Example 1, FIG. 1, in comparison to the vehicle group, i.v. after start of acetic acid infusion): dose-dependently increases; bladder capacity ([2]; Example 1, FIG. 2, in comparison to the vehicle group, i.v. after start of acetic acid infusion): dose-dependently increases; micturition pressure ([2]; Example 1, FIG. 3, i.v. after start of acetic acid infusion): no decrease; bladder capacity ([2]; Example 1 summary, 1 mg/kg): doubling; interval between two micturition contractions ([2]; Example 1 summary, 1 mg/kg): doubling; micturition pressure ([2]; Example 1 summary, 1 mg/kg): without any change; reversal of acetic acid induced detrusor instabilities ([2]; rat, 1 mg/kg i.v.): able to reverse; intercontraction interval (ICI), pre-treatment ([1]; Example 2, 1 mg/kg i.v. 30 minutes prior to intravesical acetic acid infusion): strongly inhibits decrease of ICI; lowest dose at which maximal effects on ICI were reached ([1]; Example 2, i.v. after acetic acid): 0.2 mg/kg; acetic acid induced bladder dysfunction, pre-treatment ([1]; Example 2 summary, pre-treatment before acetic acid): complete inhibition; inhibition of BK-mediated inositol phosphate generation (guinea pig B2 receptors): efficiently inhibited |
| CCN(CC)CC#CCOC(=O)C(O)(c1ccccc1)C1CCCCC1 (stereo not drawn) [Oxybutynin, 4-diethylaminio-2-butynyl phenylcyclohexyglycolate] | if any, only slight positive effects | no significant effects |  |  |  |
| CC[C@H](C)[C@H](NC(=O)[C@@H](Cc1ccc2ccccc2c1)NC(=O)[C@H](CO)NC(=O)[C@H](Cc1ccccc1)NC(=O)CNC(=O)[C@@H]1CCCN1C(=O)[C@@H]1CCCN1C(=O)[C@H](CCCN=C(N)N)NC(=O)[C@H](CCCCN)NC(C)=O)C(=O)O [R-715, H-Ac-Lys-Arg-Pro-Pro-Gly-Phe-Ser-D-Nal-Ile-OH] (Ac-KRPPGFS[d2Nal]I-OH) |  |  |  | without any change |  |
| CC[C@H](C)[C@H](NC(=O)[C@@H](Cc1ccc2ccccc2c1)NC(=O)[C@H](CO)NC(=O)[C@H](Cc1ccccc1)NC(=O)CNC(=O)[C@@H]1CCCN1C(=O)[C@@H]1CCCN1C(=O)[C@H](CCCNC(=N)N)NC(=O)[C@H](CCCCN)NC(C)=O)C(=O)O [R-715, H-Ac-Lys-Arg-Pro-Pro-Gly-Phe-Ser-D-Nal-Ile-OH] (Ac-KRPPGFS[d2Nal]I-OH) | becomes effective over the study time as well but positive effects on ICI are delayed; also recorded: doubling | increases the bladder capacity until reaching the baseline levels; also recorded: tripling |  |  |  |

— patent US20080221039A1, “Kinin Antagonists For Treating Bladder Dysfunction” (priority 2005, published 2008)
